How the values were obtained:
H1437 = experiment: In vitro combination synergy, H1437 (Cell-Titer Glo); type: cell-based; conditions: combined with exemplary PRMT5 inhibitor, 120 h, sum of Loewe, Bliss, HSA and ZIP scores
Protocol: (§1) A panel of MTAP-deleted cancer cell lines was assembled to determine whether combining BCL-2 family inhibitors with exemplary PRMT5 inhibitors disclosed herein results in synergistic activity.
(§2) [Assays for determining the synergy score for the pairwise combinations for each cell line were performed in triplicate. 384 or 96-well plates plus additional wells of a separate 384 or 96-well control plate for determining baseline luminescence were seeded with cells of a particular MTAP-deleted cell line in a suitable growth medium for that cell line, e.g., RPMI 1640 medium supplemented with 10% FBS and any cell line specific reagents needed for growth. The plates were incubated overnight at 37 °C in a 5% CO2 atmosphere.
(§3) To each of the designated baseline wells, Cell-Titer Glo reagent (CTG; Promega Corporation) was added to each well and the plates were incubated for 20 min shaking at room temperature. Baseline luminescence was quantitated using a BMG ClarioStar multimode plate reader according to the manufacturer's instructions.
(§4) A series of 1000× drug dilutions in 100% DMSO was prepared that includes a 9-point single agent 3-fold dilution of the exemplary PRMT5 inhibitor (of the type described in WO2021/050915) with a top dose of 3000 nM (and a 6-point single agent 5-fold dilution of the BCL-2 family inhibitor with a top dose of 3000 nM as reference standards.
(§5) A 10× intermediate dosing plate was prepared in serum free medium that contains arrayed single agent dilutions of exemplary PRMT5 inhibitor (of the type described in WO2021/050915) and or the BCL-2 family inhibitor. In addition, a matrix of 54 dilution combinations of exemplary PRMT5 inhibitor (of the type described in WO2021/050915) and the BCL-2 family inhibitor was prepared as test samples.
(§6) To each corresponding well of the 384-well plates seeded with the appropriate cell line above, 10× single agent and the 54 combinations of the dose matrix was added and the plates were incubated for 120 hours at 37 °C in 5% CO2 atmosphere. Cell-Titer Glo reagent (CTG) was added to each test well, the plates were incubated for 20 min shaking at room temperature, and luminescence was quantitated using a BMG ClarioStar multimode plate reader according to the manufacturer's instructions. To normalize test samples, the determined baseline luminescence was subtracted from each test sample prior to analysis and mean values are calculated from replicate samples.
(§7) The output of the data from each mathematical model is the assignment of a relative synergy score. The data reported in Table 6 are the aggregate sum of the Loewe additivity, Bliss independence, Highest Single Agent and ZIP synergy scores (“Composite Synergy Score”).

A549 = experiment: In vitro combination synergy, A549 (Cell-Titer Glo); type: cell-based; conditions: combined with exemplary PRMT5 inhibitor, 120 h, sum of Loewe, Bliss, HSA and ZIP scores
Protocol: as §1, §2, §3, §4, §5, §6, §7

H2452 = experiment: In vitro combination synergy, H2452 (Cell-Titer Glo); type: cell-based; conditions: combined with exemplary PRMT5 inhibitor, 120 h, sum of Loewe, Bliss, HSA and ZIP scores
Protocol: as §1, §2, §3, §4, §5, §6, §7

Mero83 = experiment: In vitro combination synergy, Mero83 (Cell-Titer Glo); type: cell-based; conditions: combined with exemplary PRMT5 inhibitor, 120 h, sum of Loewe, Bliss, HSA and ZIP scores
Protocol: as §1, §2, §3, §4, §5, §6, §7

Mero84 = experiment: In vitro combination synergy, Mero84 (Cell-Titer Glo); type: cell-based; conditions: combined with exemplary PRMT5 inhibitor, 120 h, sum of Loewe, Bliss, HSA and ZIP scores
Protocol: as §1, §2, §3, §4, §5, §6, §7

LU99 = experiment: In vitro combination synergy, LU99 (Cell-Titer Glo); type: cell-based; conditions: combined with exemplary PRMT5 inhibitor, 120 h, sum of Loewe, Bliss, HSA and ZIP scores
Protocol: as §1, §2, §3, §4, §5, §6, §7

SU8686 = experiment: In vitro combination synergy, SU8686 (Cell-Titer Glo); type: cell-based; conditions: combined with exemplary PRMT5 inhibitor, 120 h, sum of Loewe, Bliss, HSA and ZIP scores
Protocol: as §1, §2, §3, §4, §5, §6, §7

Mero14 = experiment: In vitro combination synergy, Mero14 (Cell-Titer Glo); type: cell-based; conditions: combined with exemplary PRMT5 inhibitor, 120 h, sum of Loewe, Bliss, HSA and ZIP scores
Protocol: as §1, §2, §3, §4, §5, §6, §7

H2052 = experiment: In vitro combination synergy, H2052 (Cell-Titer Glo); type: cell-based; conditions: combined with exemplary PRMT5 inhibitor, 120 h, sum of Loewe, Bliss, HSA and ZIP scores
Protocol: as §1, §2, §3, §4, §5, §6, §7

H2228 = experiment: In vitro combination synergy, H2228 (Cell-Titer Glo); type: cell-based; conditions: combined with exemplary PRMT5 inhibitor, 120 h, sum of Loewe, Bliss, HSA and ZIP scores
Protocol: as §1, §2, §3, §4, §5, §6, §7

Miapaca2 = experiment: In vitro combination synergy, Miapaca2 (Cell-Titer Glo); type: cell-based; conditions: combined with exemplary PRMT5 inhibitor, 120 h, sum of Loewe, Bliss, HSA and ZIP scores
Protocol: as §1, §2, §3, §4, §5, §6, §7

HCC4006 = experiment: In vitro combination synergy, HCC4006 (Cell-Titer Glo); type: cell-based; conditions: combined with exemplary PRMT5 inhibitor, 120 h, sum of Loewe, Bliss, HSA and ZIP scores
Protocol: as §1, §2, §3, §4, §5, §6, §7

H1650 = experiment: In vitro combination synergy, H1650 (Cell-Titer Glo); type: cell-based; conditions: combined with exemplary PRMT5 inhibitor, 120 h, sum of Loewe, Bliss, HSA and ZIP scores
Protocol: as §1, §2, §3, §4, §5, §6, §7

RT4 = experiment: In vitro combination synergy, RT4 (Cell-Titer Glo); type: cell-based; conditions: combined with exemplary PRMT5 inhibitor, 120 h, sum of Loewe, Bliss, HSA and ZIP scores
Protocol: as §1, §2, §3, §4, §5, §6, §7

SW1573 = experiment: In vitro combination synergy, SW1573 (Cell-Titer Glo); type: cell-based; conditions: combined with exemplary PRMT5 inhibitor, 120 h, sum of Loewe, Bliss, HSA and ZIP scores
Protocol: as §1, §2, §3, §4, §5, §6, §7

LU99 xenograft tumors = experiment: In vivo combination study (LU99 model), Example 1; set-up: species or system female nu/nu mice; conditions: MRTX1719, ABT-263, ABT-199 each 100 mg/kg PO QD, alone or combined
Source text: Immunodeficient female nu/nu mice were implanted with 5×10^6 LU99 cancer cells in 50% Matrigel. Tumor volume measurements were collected using calipers and determined utilizing the formula 0.5×L×W^2 in which L refers to length and W refers to width of each tumor. When tumors reached approximately 125-150 mm^3, animals were randomized to receive A) vehicle, B) a PRMT5 inhibitor, C) navitoclax (ABT-263), D) venetoclax (ABT-199), E) A-1331852, F) the PRMT5 inhibitor and navitoclax, F) the PRMT5 inhibitor and venetoclax, or G) the PRMT5 inhibitor and A-1331852 all administered orally (PO) with the indicated dose and schedule for 20-34 days. Tumor volume was measured twice a week (n=5/treatment group). Average tumor volume and standard error of the mean was calculated and plotted at each study day using GraphPad Prism.
The PRMT5 inhibitor was MRTX1719 administered at 100 mg/kg once a day (QD). MRTX1719 is (2M)-2-(4-(4-(aminomethyl)-1-oxo-1,2-dihydrophthalazin-6-yl)-1-methyl-1H-pyrazol-5-yl)-4-chloro-6-cyclopropoxy-3-fluorobenzonitrile, disclosed as Example 16-8 at p. 307 of the international patent publication No. WO 2021/050915 A1, published 18 Mar. 2021, incorporated by reference in its entirety.
The BCL-2 family inhibitors used in this example, ABT-199 (venetoclax) and ABT-263 (navitoclax), were administered at 100 mg/kg once a day (QD) and supplied by Selleck Chemicals (Houston, TX).

| SMILES | Composite Synergy Score (H1437) | Composite Synergy Score (A549) | Composite Synergy Score (H2452) | Composite Synergy Score (Mero83) | Composite Synergy Score (Mero84) | Composite Synergy Score (LU99) | Composite Synergy Score (SU8686) | Composite Synergy Score (Mero14) | Composite Synergy Score (H2052) | Composite Synergy Score (H2228) | Composite Synergy Score (Miapaca2) | Composite Synergy Score (HCC4006) | Composite Synergy Score (H1650) | Composite Synergy Score (RT4) | Composite Synergy Score (SW1573) | further results |
| --- | --- | --- | --- | --- | --- | --- | --- | --- | --- | --- | --- | --- | --- | --- | --- | --- |
| CN(C)CC#Cc1ccc(OCCCc2sc(N3CCc4cccc(C(=O)Nc5nc6ccccc6s5)c4C3)nc2C(=O)O)c(F)c1 [A-1155463] | 17 | 22 | 37 | −11 | 0 | 27 | 50 | 12 | 14 | 46 | 44 | 88 | 51 | 37 | 29 |  |
| CC1(C)CCC(CN2CCN(c3ccc(C(=O)NS(=O)(=O)c4ccc(NCC5CCOCC5)c([N+](=O)[O-])c4)c(Oc4cnc5[nH]ccc5c4)c3)CC2)=C(c2ccc(Cl)cc2)C1 [ABT-199, venetoclax] | 2 | −7 | 28 | 20 | −12 | −8 | 4 | −8 | −33 | −13 | −7 | −6 | −11 | 0 | −16 | Average Tumor Volume (LU99 xenograft tumors; day 3): 270 mm^3; Average Tumor Volume (LU99 xenograft tumors; day 6): 462 mm^3; Average Tumor Volume (LU99 xenograft tumors; day 10): 709 mm^3; Average Tumor Volume (LU99 xenograft tumors; day 13): 956 mm^3; Average Tumor Volume (LU99 xenograft tumors; day 17): 1395 mm^3; Average Tumor Volume (LU99 xenograft tumors; day 20): 1675 mm^3; Average Tumor Volume (LU99 xenograft tumors; day −1): 153 mm^3 |

Reference: patent US20260355188A1, “COMBINATION THERAPIES USING PRMT5 INHIBITORS AND BCL-2 FAMILY INHIBITORS FOR THE TREATMENT OF CANCER” (MIRATI THERAPEUTICS, INC., priority 2022, published 2026)
